From patent USRE47689E1, “Compounds for treating spinal muscular atrophy” (PTC Therapeutics, Inc., priority 2011, dated 2019)
Where two headings read alike, the source gives them in different places.

What was measured:
Smn protein = Smn protein assay in cultured cells (SMN HTRF); assay type: cell-based, human; details: for EC1.5x (concentration giving 1.5-fold Smn protein increase): read-out: EC1.5x for Smn protein expression
Procedure, shortened: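 Smn in SMA fibroblast lysates, measured by anti-SMN HTRF after 48 h compound exposure; EC1.5x from fold change over vehicle.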

[1] = system: SMN2 minigene (full length SMN2 minigene mRNA containing SMN2 exon 7); experiment: SMN2 minigene mRNA splicing RT-qPCR assay in cultured cells; assay type: cell-based, human; details: Homo sapiens, HEK293-H, read-out: EC1.5x for production of full length SMN2 mRNA
Procedure, shortened: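 Full-length SMN2 minigene mRNA (exon 7 included), minigene-specific and not endogenous SMN, quantified by RT-qPCR multiplexed with GAPDH in stably transfected HEK293H cells after 24 h compound exposure at 37° C. Abundance from efficiency-corrected Ct, normalized to GAPDH and vehicle; EC1.5x reported as star bins.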

[2] = SMA patient fibroblast cells, 48 hours, 7-point concentration data, fold increase relative to vehicle control (SMN HTRF)
[3] = HEK293H cells stably transfected with SMN2-A minigene, 24 hours, 7-point concentration curve, 1.5-fold relative to vehicle-treated cells
[4] = SMA Type 1 patient fibroblast cells (GM03813), 48 hours, 7-point concentration curve, SMN HTRF, concentration producing 1.5 times Smn protein vs DMSO vehicle control

| SMILES | maximum fold (Fold) increase of Smn protein (Smn protein; [2]) | melting point | EC (1.5-fold) [1, 3] | EC1.5x (concentration giving 1.5-fold Smn protein increase) (Smn protein; [4]) | maximum fold (Fold) increase of Smn protein (Smn protein) | EC (1.5-fold) ([1]; 24 h) | EC1.5x (concentration giving 1.5-fold Smn protein increase) (Smn protein) |
| --- | --- | --- | --- | --- | --- | --- | --- |
| Cc1ccc2nc(-c3cc4ccc(N5C[C@@H](C)N[C@@H](C)C5)cc4oc3=O)cn2n1 [Cpd 617, 7-[(3R,5S)-3,5-dimethylpiperazin-1-yl]-3-(6-methylimidazo[1,2-b]pyridazin-2-yl)-2H-chromen-2-one] | *** (fold increase between >1.35 and ≤1.5) | 225 to 227 °C | < 0.1 µM |  |  |  |  |
| Cc1cn2cc(-c3cc4ccc(N(C)[C@H]5CCNC5)cc4oc3=O)nc2c(C)n1 [Cpd 620, 3-(6,8-dimethylimidazo[1,2-a]pyrazin-2-yl)-7-{methyl[(3S)-pyrrolidin-3-yl]amino}-2H-chromen-2-one] | **** (fold increase between >1.5 and ≤1.65) | 192 to 202 °C | < 0.1 µM | < 300 nM |  |  |  |
| C[C@@H]1CN(c2ccc3cc(-c4cc5cnccc5s4)c(=O)oc3c2)C[C@H](C)N1 [Cpd 630, 7-[(3R,5S)-3,5-dimethylpiperazin-1-yl]-3-(thieno[3,2-c]pyridin-2-yl)-2H-chromen-2-one] | * (maximum fold increase of ≤1.2) | 163 to 165 °C | 0.3 to 1 µM |  |  |  |  |
| Cc1ccc2cc(-c3cc4ccc(N5CCNCC5)cc4oc3=O)cn2n1 [Cpd 641, 3-(2-methylpyrrolo[1,2-b]pyridazin-6-yl)-7-(piperazin-1-yl)-2H-chromen-2-one] |  | 213 to 216 °C |  |  | * (key: *: maximum fold increase of ≤1.2; **: fold increase between >1.2 and ≤1.35; ***: fold increase between >1.35 and ≤1.5; ****: fold increase between >1.5 and ≤1.65; *****: fold increase >1.65) | 0.3 to 1 µM |  |
| Cc1cn2cc(-c3cc4ccc(N5CCN6CCC[C@H]6C5)cc4oc3=O)ccc2n1 [Cpd 651, 7-[(8aS)-hexahydropyrrolo[1,2-a]pyrazin-2(1H)-yl]-3-(2-methylimidazo[1,2-a]pyridin-6-yl)-2H-chromen-2-one] | *** (fold increase between >1.35 and ≤1.5) | 231 to 233 °C | < 0.1 µM | < 300 nM |  |  |  |
| Cc1ccc2oc(-c3cc4ccc(N5CCN(C)CC5)cc4oc3=O)cc2n1 [Cpd 698, 3-(5-methylfuro[3,2-b]pyridin-2-yl)-7-(4-methylpiperazin-1-yl)-2H-chromen-2-one] | * (maximum fold increase of ≤1.2) | 178 to 180 °C | 1 to 3 µM |  |  |  |  |
| Cc1nc(C)c2cc(-c3cc4ccc(N5CCNCC5)cc4oc3=O)sc2n1 [Cpd 705, 3-(2,4-dimethylthieno[2,3-d]pyrimidin-6-yl)-7-(piperazin-1-yl)-2H-chromen-2-one] | *** (fold increase between >1.35 and ≤1.5) | 275 °C (dec.) | 0.1 to 0.3 µM |  |  |  |  |
| Cc1nc(Cl)cn2cc(-c3cc4ccc(N5CCCN(C)CC5)cc4oc3=O)nc12 [Cpd 712, 3-(6-chloro-8-methylimidazo[1,2-a]pyrazin-2-yl)-7-(4-methyl-1,4-diazepan-1-yl)-2H-chromen-2-one] | ** (fold increase between >1.2 and ≤1.35) | 212 to 218 °C | < 0.1 µM |  |  |  |  |
| Cc1cc2cc(-c3cc4ccc(N5CCNCC5)cc4oc3=O)oc2c(C)n1 [Cpd 723, 3-(5,7-dimethylfuro[2,3-c]pyridin-2-yl)-7-(piperazin-1-yl)-2H-chromen-2-one] | ***** (fold increase >1.65) | 218 to 220 °C | < 0.1 µM | < 300 nM |  |  |  |
| Cc1cn2cc(-c3cc4ccc(C5CCNCC5)cc4oc3=O)nc2c(C)n1 [Cpd 742, 3-(6,8-dimethylimidazo[1,2-a]pyrazin-2-yl)-7-(piperidin-4-yl)-2H-chromen-2-one] | ***** (fold increase >1.65) | 224 to 229 °C | < 0.1 µM | < 300 nM |  |  |  |
| Cc1nc2ccc(-c3cc4ccc(N5CCN(C)CC5)cc4oc3=O)cc2s1 [Cpd 769, 3-(2-methyl-1,3-benzothiazol-6-yl)-7-(4-methylpiperazin-1-yl)-2H-chromen-2-one] | ** (fold increase between >1.2 and ≤1.35) | 215 to 217 °C | 0.3 to 1 µM |  |  |  |  |
| Cc1cn2cc(-c3cc4ccc(C5CCN(C(C)C)CC5)cc4oc3=O)nc2c(C)n1 [Cpd 773, 3-(6,8-dimethylimidazo[1,2-a]pyrazin-2-yl)-7-[1-(propan-2-yl)piperidin-4-yl]-2H-chromen-2-one] | **** (fold increase between >1.5 and ≤1.65) | 206 to 211 °C | < 0.1 µM | < 300 nM |  |  |  |
| Cc1cn2cc(-c3ccc4cc(N5CCNCC5)c(=O)oc4c3)ccc2n1 [Cpd 818, 7-(2-methylimidazo[1,2-a]pyridin-6-yl)-3-(piperazin-1-yl)-2H-chromen-2-one] | * (maximum fold increase of ≤1.2) | 174 to 178 °C | 1 to 3 µM |  |  |  |  |
| Cc1cn2cc(-c3cc4ccc(CN(C)C)cc4oc3=O)nc2c(C)n1 [Cpd 846, 7-[(dimethylamino)methyl]-3-(6,8-dimethylimidazo[1,2-a]pyrazin-2-yl)-2H-chromen-2-one] | ***** (fold increase >1.65) | 192 to 196 °C | 0.1 to 0.3 µM | 300 to 1000 nM |  |  |  |
| Cc1cn2cc(-c3cc4ccc(OCCN(C)C)cc4oc3=O)nc2c(C)n1 [Cpd 876, 7-[2-(dimethylamino)ethoxy]-3-(6,8-dimethylimidazo[1,2-a]pyrazin-2-yl)-2H-chromen-2-one] | **** (fold increase between >1.5 and ≤1.65) | 251 to 253 °C | < 0.1 µM | < 300 nM |  |  |  |
| Cc1cn2cc(-c3cc4ccc(CCCCN(C)C)cc4oc3=O)nc2c(C)n1 [Cpd 902, 7-[4-(dimethylamino)butyl]-3-(6,8-dimethylimidazo[1,2-a]pyrazin-2-yl)-2H-chromen-2-one] | ***** (fold increase >1.65) | 190 to 193 °C | < 0.1 µM | < 300 nM |  |  |  |
| Cc1cn2cc(-c3cc4ccc(CCCN(C)C)cc4oc3=O)ccc2n1 [Cpd 908, 7-[3-(dimethylamino)propyl]-3-(2-methylimidazo[1,2-a]pyridin-6-yl)-2H-chromen-2-one] | ***** (fold increase >1.65) | 176 to 178 °C | 0.1 to 0.3 µM | 300 to 1000 nM |  |  |  |
| Cc1cn2cc(-c3cc4ccc(OCCN5CCCC5)cc4oc3=O)nc2c(C)n1 [Cpd 918, 3-(6,8-dimethylimidazo[1,2-a]pyrazin-2-yl)-7-[2-(pyrrolidin-1-yl)ethoxy]-2H-chromen-2-one] | **** (fold increase between >1.5 and ≤1.65) | 201 to 203 °C | < 0.1 µM | 300 to 1000 nM |  |  |  |
| Cc1cn2cc(-c3cc4ccc(CCCN)cc4oc3=O)nc2c(C)n1 [Cpd 927, 7-(3-aminopropyl)-3-(6,8-dimethylimidazo[1,2-a]pyrazin-2-yl)-2H-chromen-2-one] | ** (fold increase between >1.2 and ≤1.35) | 212 to 216 °C | 1 to 3 µM |  |  |  |  |
| Cc1cn2cc(-c3cc4ccc(CCCNCc5ccccc5)cc4oc3=O)nc2c(C)n1 [Cpd 933, 7-[3-(benzylamino)propyl]-3-(6,8-dimethylimidazo[1,2-a]pyrazin-2-yl)-2H-chromen-2-one] | * (maximum fold increase of ≤1.2) | 143 to 147 °C | < 0.1 µM |  |  |  |  |
| Cc1cn2cc(-c3cc4ccc(N5CC(N(C)C)C5)cc4oc3=O)nc2c(C)n1 [Cpd 943, 7-[3-(dimethylamino)azetidin-1-yl]-3-(6,8-dimethylimidazo[1,2-a]pyrazin-2-yl)-2H-chromen-2-one] | **** (fold increase between >1.5 and ≤1.65) | 246 to 250 °C | < 0.1 µM | < 300 nM |  |  |  |
| Cc1cn2cc(-c3cc4ccc(OC[C@H]5CCCN5)cc4oc3=O)nc2c(C)n1 [Cpd 948, 3-(6,8-dimethylimidazo[1,2-a]pyrazin-2-yl)-7-[(2R)-pyrrolidin-2-ylmethoxy]-2H-chromen-2-one] | *** (fold increase between >1.35 and ≤1.5) | 172 to 174 °C | < 0.1 µM |  |  |  |  |
| CCN1CCC(F)(c2ccc3cc(-c4cn5cc(C)nc(C)c5n4)c(=O)oc3c2)CC1 [Cpd 958, 3-(6,8-dimethylimidazo[1,2-a]pyrazin-2-yl)-7-(1-ethyl-4-fluoropiperidin-4-yl)-2H-chromen-2-one] |  | 162 to 164 °C |  |  | ***** (key: *: maximum fold increase of ≤1.2; **: fold increase between >1.2 and ≤1.35; ***: fold increase between >1.35 and ≤1.5; ****: fold increase between >1.5 and ≤1.65; *****: fold increase >1.65) | < 0.1 µM | < 300 nM |
